Holding throughout (format): biochemical
The target in experiment [1] is T1, TyrA-ATc arogenate dehydrogenase (Arabidopsis thaliana, UniProt Q944B6, V36M).
T1 construct: introduces an ATG initiating codon and an Nde I restriction site (underlined) at position 174 from the first ATG codon (V58M); made in house; host or cells: Escherichia coli AT2471 (pET21a(+)), soluble crude extract
Briefly: arogenate dehydrogenase activity, spectrophotometric monitoring at 340 nm, recombinant TyrA-ATc. The settings on record: for Michaelis constant: TyrA-Atc, Km for substrate/cofactor; for inhibition of arogenate dehydrogenase activity: TyrA-ATc, 1 mM. On the procedure: (§1) The arogenate dehydrogenase activity is measured at 25° C. by spectrophotometric monitoring, at 340 nm, of the formation of NADH or NADPH in a solution containing 50 mM of Tris-HCl, pH 8.6, 300 μm of arogenate and 1 mM of NAD or […] in a total volume of 200 μl.
(§2) Eshcerichia coli AT2471 cells were transformed with each one of the plasmids pET21-TyrA-AT obtained in example 3, and then cultured at 37° C. in 2 liters of Luria-Bertani medium supplemented with 100 μg/ml of carbenicillin. When the culture had reached the equivalent of an absorbance at 600 nm (A600) of 0.6, 1 mM of isopropyl-β-D-thiogalactoside was added to the culture medium in order to induce recombinant protein synthesis. The cells were then cultured for 16 h at 28° C., harvested, and then centrifuged for 20 min at 40 000 g. The pellet was then resuspended in a 50 mM Tris-HC1 buffer, pH 7.5, containing 1 mM EDTA, 1 mM dithiothreitol, 1 mM benzamidine HCl and 5 mM aminocaproic acid, and then sonicated (100 pulses every 3 seconds at power 5) with a Vibra-Cell disrupter (Sonics and Materials, Danbury, Conn., USA). The crude extracts thus obtained were then centrifuged for 20 min at 40 000 g, and the supernatants were used directly for the enzyme assays.
(§3) The biochemical characterization of the recombinant arogenate dehydrogenase enzymes was carried out using the soluble protein extracts of the transformed E. coli strains. The arogenate dehydrogenase activity was measured according to the method described in example 4. […] No arogenate dehydrogenase activity was detected in the presence of NAD, and no prephenate dehydrogenase activity was detected whatever the cofactor used (NADP or NAD) and whatever the protein tested (TyrA-ATc, TyrA-AT1 or TyrA-AT2). […] Each one of these enzymes has a Michaelis-Menten-type behavior, and their Km value for arogenate and NADP is relatively the same (FIGS. 2 and 3). The Michaelis constants for NADP are, respectively, 40 μM for TyrA-Atc, 60 μM for TyrA-AT1, and 20 μM for TyrA-AT2. The Michaelis constants for arogenate are, respectively, 70 μM for TyrA-Atc, 45 μM for TyrA-AT1, and 45 μM for TyrA-AT2. In addition, like the other plant arogenate dehydrogenases (Byng et al., 1981, Phytochemistry 6, 1289-1292; Connelly and Conn, 1986, Z. Naturforsch 41c, 69-78; Gaines et al., 1982 Planta 156, 233-240), the Arabidopsis arogenate dehydrogenases are all very sensitive to tyrosine, the product of the enzyme reaction, and insensitive to 1 mM of phenylalanine and 1 mM of p-hydroxyphenylpyruvate.

The target of experiment [2] is T2, TyrA-AT1 arogenate dehydrogenase (Arabidopsis thaliana, UniProt Q944B6).
T2 construct: recombinant proteins were observed only with the constructs encoding the proteins M58-TyrA-Atc and M58-TyrA-AT1; made in house; host or cells: Escherichia coli AT2471 (pET21a(+)), soluble crude extract
T2 sequence (Q944B6 with tags, fused parts or gaps): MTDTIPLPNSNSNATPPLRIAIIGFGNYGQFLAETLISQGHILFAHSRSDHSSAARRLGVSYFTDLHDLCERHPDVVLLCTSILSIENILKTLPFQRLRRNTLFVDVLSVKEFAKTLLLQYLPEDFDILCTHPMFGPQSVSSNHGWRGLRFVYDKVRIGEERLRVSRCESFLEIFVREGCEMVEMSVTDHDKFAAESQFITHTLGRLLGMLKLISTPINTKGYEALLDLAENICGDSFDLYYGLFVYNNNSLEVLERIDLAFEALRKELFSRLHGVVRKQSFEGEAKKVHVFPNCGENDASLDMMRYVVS
The experiment is described as follows: arogenate dehydrogenase activity, spectrophotometric monitoring at 340 nm, recombinant TyrA-AT1. The settings on record: for Michaelis constant: Km for substrate/cofactor; for inhibition of arogenate dehydrogenase activity: 1 mM. The method, then: as §1, §2, §3

In experiment [3] the target is T3, TyrA-AT2 arogenate dehydrogenase (Arabidopsis thaliana, UniProt Q944B6).
T3 construct: at the ATG codon of the second open reading frame (at position 1081 from the first ATG codon); made in house; host or cells: Escherichia coli AT2471 (pET21a(+)), soluble crude extract
T3 sequence (Q944B6 339-640): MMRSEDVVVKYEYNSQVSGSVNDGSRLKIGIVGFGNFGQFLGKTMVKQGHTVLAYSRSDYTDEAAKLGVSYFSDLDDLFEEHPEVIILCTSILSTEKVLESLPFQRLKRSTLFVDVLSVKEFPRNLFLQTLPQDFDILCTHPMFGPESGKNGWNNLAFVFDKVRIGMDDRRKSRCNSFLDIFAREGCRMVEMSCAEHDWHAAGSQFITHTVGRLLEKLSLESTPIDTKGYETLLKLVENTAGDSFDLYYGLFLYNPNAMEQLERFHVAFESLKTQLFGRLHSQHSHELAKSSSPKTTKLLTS
Briefly: arogenate dehydrogenase activity, spectrophotometric monitoring at 340 nm, recombinant TyrA-AT2. The note with it: for Michaelis constant: Km for substrate/cofactor; for inhibition of arogenate dehydrogenase activity: 1 mM. On the procedure: as §1, §2, §3

Experiment [4] deals with Synechocystis arogenate dehydrogenase. The experiment is described as follows: arogenate dehydrogenase activity, spectrophotometric monitoring at 340 nm, recombinant Synechocystis enzyme. The settings on record: for Michaelis constant: Km for substrate/cofactor. The method, then: as §1, §2
The sequence of the gene encoding the A. thaliana arogenate dehyrogenase identified in example 1 (TyrA) made it possible to identify an arogenate dehydrogenase gene in the bacterium Synechocystis (accession number: 1652956). This gene was originally described as encoding a “prephenate dehydrogenase” enzyme. It was isolated from a Synechocystis genomic library and the enzyme was produced in the same way as the A. thaliana enzyme, according to the protocol described in example 5 . […] The arogenate dehydrogenase activity was measured according to the method described in example 4 . […] No arogenate dehydrogenase activity was detected in the presence of NAD, and no prephenate dehydrogenase activity was detected whatever the cofactor used (NADP or NAD). […]

Experiment [5] concerns the target T4, TyrA-ATc arogenate dehydrogenase (Arabidopsis thaliana, UniProt Q944B6).
T4 construct: introduces an ATG initiating codon and an Nde I restriction site (underlined) at position 174 from the first ATG codon (V58M); made in house; host or cells: Escherichia coli AT2471 (pET21a(+)), soluble crude extract
The experiment is described as follows: arogenate dehydrogenase activity, spectrophotometric monitoring at 340 nm, recombinant TyrA-ATc. The settings on record: TyrA-Atc; inhibition competitive with respect to arogenate. On the procedure:
as §1, §2, §3

[6] abbreviates: inhibition competitive with respect to arogenate.

This note sets out measurements from patent US7279302B2, “Methods for identifying herbicidal compounds” (Bayer CropScience S.A., priority 2000, dated 2007).

Molecules are shown by their SMILES.

T1 sequence (Q944B6 36-640 V36M): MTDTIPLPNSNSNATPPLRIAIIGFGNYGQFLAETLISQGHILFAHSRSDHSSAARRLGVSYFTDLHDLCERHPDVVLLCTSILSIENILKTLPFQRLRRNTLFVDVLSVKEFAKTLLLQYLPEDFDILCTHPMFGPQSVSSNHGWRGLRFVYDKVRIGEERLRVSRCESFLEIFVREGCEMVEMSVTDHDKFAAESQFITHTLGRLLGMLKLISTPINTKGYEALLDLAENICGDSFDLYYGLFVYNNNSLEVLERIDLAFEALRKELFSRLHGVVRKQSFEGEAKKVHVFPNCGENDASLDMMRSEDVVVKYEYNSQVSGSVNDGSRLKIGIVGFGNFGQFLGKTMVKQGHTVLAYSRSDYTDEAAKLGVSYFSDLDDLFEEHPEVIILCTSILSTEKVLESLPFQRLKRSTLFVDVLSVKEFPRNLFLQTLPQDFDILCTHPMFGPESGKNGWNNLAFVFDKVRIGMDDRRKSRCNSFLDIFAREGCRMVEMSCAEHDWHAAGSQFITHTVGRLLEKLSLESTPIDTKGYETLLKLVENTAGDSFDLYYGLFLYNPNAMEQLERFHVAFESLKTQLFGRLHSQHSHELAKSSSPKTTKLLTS
T4 sequence (Q944B6 36-640 V36M): as above

Consider `NC(=O)c1ccc[n+]([C@@H]2O[C@H](COP(=O)([O-])OP(=O)(O)OC[C@H]3O[C@@H](n4cnc5c(N)ncnc54)[C@H](OP(=O)(O)O)[C@@H]3O)[C@@H](O)[C@H]2O)c1` [NADP], for which the Michaelis constant in experiment [1] came out at 40 µM; in experiment [2], 60 µM; in experiment [3], 20 µM; in experiment [4], 6 µM.
For the compound `N[C@@H](Cc1ccccc1)C(=O)O` [phenylalanine], the “inhibition of arogenate dehydrogenase activity” value (“inhibition” for short) in experiment [1], in experiment [2] and in experiment [3] was “insensitive” throughout.
With `O=C(O)C(=O)CC1(C(=O)O)C=CC(O)C=C1` (stereo not drawn) [prephenate], the “inhibition” value in experiment [1], in experiment [2], in experiment [3] and in experiment [4] (1 mM) was “does not inhibit” in each case.
For the compound `O=C(O)C(=O)Cc1ccc(O)cc1` [p-hydroxyphenylpyruvate], the “inhibition” value in experiment [1], in experiment [2] and in experiment [3] was “insensitive” throughout.
With `N[C@@H](Cc1ccc(O)cc1)C(=O)O` [tyrosine], the Ki in experiment [5] is 14 µM; in experiment [2] (setting [6]), 8 µM; in experiment [3] (setting [6]), 12 µM.
Turning to `N[C@@H](CC1(C(=O)O)C=CC(O)C=C1)C(=O)O` (stereo partly drawn) [arogenate], the Michaelis constant in experiment [1] was 70 µM; in experiment [2], 45 µM; in experiment [3], 45 µM; in experiment [4], 107 µM.
